Reference: the supplement of paper PMC11061612

Assays:
Experiment in all cases: combination Emax (second highest fraction inhibited in the dose matrix, 72 h); higher = more inhibition; extreme values may be limits of the assay
[1] = tested on: BL-41 (Burkitt's Lymphoma)
In short: (§1)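 Bliss excess equals the observed combination effect minus the expected value EA + EB − EA·EB, where EA and EB are the effects of each agent alone. Combination Emax is the second-highest inhibition within the matrix. Inhibition was scaled from CellTiter-Glo 2.0 luminescence, with 0 set by vehicle wells and 1 by blank wells, after 72 hours of two-drug dosing of cells plated in 1536-well plates.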

CHP-212 (Neuroblastoma) = tested on: CHP-212 (Neuroblastoma)
In short: as §1

[2] = tested on: PANC-08-13 (Pancreatic Carcinoma)
In short: as §1

[3] = tested on: NCI-H1792 (Lung Adenocarcinoma)
In short: as §1

[4] = tested on: SR (Other Blood Carcinomas)
In short: as §1

[5] = tested on: SW1417 (Colorectal Carcinoma)
In short: as §1

[6] = tested on: KM12 (Colorectal Carcinoma)
In short: as §1

[7] = tested on: KCL-22 (Chronic Myelogenous Leukemia)
In short: as §1

[8] = tested on: NCI-H847 (Small Cell Lung Carcinoma)
In short: as §1

ES8 (Ewing's Sarcoma) = tested on: ES8 (Ewing's Sarcoma)
In short: as §1

[9] = tested on: KARPAS-45 (T-Lymphoblastic Leukemia)
In short: as §1

[10] = tested on: K-562 (Chronic Myelogenous Leukemia)
In short: as §1

MEL-JUSO (Melanoma) = tested on: MEL-JUSO (Melanoma)
In short: as §1

LN-18 (Glioblastoma) = tested on: LN-18 (Glioblastoma)
In short: as §1

[11] = tested on: COLO-678 (Colorectal Carcinoma)
In short: as §1

ES1 (Ewing's Sarcoma) = tested on: ES1 (Ewing's Sarcoma)
In short: as §1

[12] = tested on: GR-ST (B-Lymphoblastic Leukemia)
In short: as §1

U251 (Low Grade Glioma) = tested on: U251 (Low Grade Glioma)
In short: as §1

[13] = tested on: P12-ICHIKAWA (T-Lymphoblastic Leukemia)
In short: as §1

[14] = tested on: HDQ-P1 (Breast Carcinoma)
In short: as §1

SMILES	combination Emax [1]	combination Emax (CHP-212 (Neuroblastoma))	combination Emax [2]	combination Emax [3]	combination Emax [4]	combination Emax [5]	combination Emax [6]	combination Emax [7]	combination Emax [8]	combination Emax (ES8 (Ewing's Sarcoma))	combination Emax [9]	combination Emax [10]	combination Emax (MEL-JUSO (Melanoma))	combination Emax (LN-18 (Glioblastoma))	combination Emax [11]	combination Emax (ES1 (Ewing's Sarcoma))	combination Emax [12]	combination Emax (U251 (Low Grade Glioma))	combination Emax [13]	combination Emax [14]
CN(C)CCCOc1ccc(-c2ccc3ncc4c(c3c2)n(C2CCOCC2)c(=O)n4C)cn1 [AZD0156] + O=C(c1cc(Cc2n[nH]c(=O)c3ccccc23)ccc1F)N1CCN(C(=O)C2CC2)CC1 [Olaparib] (first compound max 3 µM, partner max 3 µM)	0.366	0.519	0.241	0.267	0.675	0.135	0.36	0.457	0.64	0.877	0.238	0.171	0.115	0.203	0.216	0.834	0.6	0.294	0.611	0.371
C=CCn1c(=O)c2cnc(Nc3ccc(N4CCN(C)CC4)cc3)nc2n1-c1cccc(C(C)(C)O)n1 [AZD1775] + C1CN(CCC1(C(=O)N[C@@H](CCO)C2=CC=C(C=C2)Cl)N)C3=NC=NC4=C3C=CN4 [Capivasertib] (first compound max 3 µM, partner max 3 µM)	0.993	0.859	0.544	0.808	0.999	0.544	0.872	0.962	1	0.943	0.962	0.895	0.442	0.581	0.51	0.797	0.818	0.671	1	0.856
CN(CCO)CC[C@H](CSc1ccccc1)Nc1ccc(S(=O)(=O)NC(=O)c2ccc(N3CCC([C@@H](O)c4ccccc4-c4ccc(Cl)cc4)CC3)cc2)cc1S(=O)(=O)C(F)(F)F [AZD4320] + C1CN(CCC1(C(=O)N[C@@H](CCO)C2=CC=C(C=C2)Cl)N)C3=NC=NC4=C3C=CN4 [Capivasertib] (first compound max 1 µM, 7x7, partner max 3 µM)	0.215	0.176	0.422	0.0895	0.49	0.709	0.565	0.35	1	0.493	0.987	0.129	0.139	0.298	0.0393	0.246	0.402	0.181	1	0.584
CN(CCO)CC[C@H](CSc1ccccc1)Nc1ccc(S(=O)(=O)NC(=O)c2ccc(N3CCC([C@@H](O)c4ccccc4-c4ccc(Cl)cc4)CC3)cc2)cc1S(=O)(=O)C(F)(F)F [AZD4320] + C=CCn1c(=O)c2cnc(Nc3ccc(N4CCN(C)CC4)cc3)nc2n1-c1cccc(C(C)(C)O)n1 [AZD1775] (first compound max 1 µM, partner max 1 µM)	1	0.809	0.492	0.696	1	0.853	0.881	0.937	1	0.962	1	0.871	0.73	0.537	0.367	0.827	0.765	0.289	1	0.911
CN(CCO)CC[C@H](CSc1ccccc1)Nc1ccc(S(=O)(=O)NC(=O)c2ccc(N3CCC([C@@H](O)c4ccccc4-c4ccc(Cl)cc4)CC3)cc2)cc1S(=O)(=O)C(F)(F)F [AZD4320] + CCN(CCO)CCCOc1ccc2c(Nc3cc(CC(=O)Nc4cccc(F)c4)[nH]n3)ncnc2c1 [AZD2811] (first compound max 1 µM, 7x7, partner max 1 µM)	0.723	0.758	0.422	0.113	0.938	0.759	0.173	0.556	1	1	1	0.333	0.446	0.584	0.456	0.613	0.151	0.42	1	0.849
CN(CCO)CC[C@H](CSc1ccccc1)Nc1ccc(S(=O)(=O)NC(=O)c2ccc(N3CCC([C@@H](O)c4ccccc4-c4ccc(Cl)cc4)CC3)cc2)cc1S(=O)(=O)C(F)(F)F [AZD4320] + CN(C)CCCOc1ccc(-c2ccc3ncc4c(c3c2)n(C2CCOCC2)c(=O)n4C)cn1 [AZD0156] (first compound max 1 µM, 7x7, partner max 1 µM)	0.277	0.278	0.352	0.12	0.252	0.742	0.186	0.361	1	0.64	0.988	0.345	0.212	0.222	0.0581	0.226	0.175	0.185	1	0.465
CN(CCO)CC[C@H](CSc1ccccc1)Nc1ccc(S(=O)(=O)NC(=O)c2ccc(N3CCC([C@@H](O)c4ccccc4-c4ccc(Cl)cc4)CC3)cc2)cc1S(=O)(=O)C(F)(F)F [AZD4320] + C[C@@H](Nc1cc(F)cc(F)c1)c1cc(C(=O)N(C)C)cc2c(=O)cc(N3CCOCC3)oc12 [AZD8186] (first compound max 1 µM, 7x7, partner max 3 µM)	0.745	0.752	0.481	0.323	0.713	0.707	0.315	0.33	1	0.99	1	0.313	0.428	0.555	0.344	0.725	0.537	0.635	1	0.787
CN(CCO)CC[C@H](CSc1ccccc1)Nc1ccc(S(=O)(=O)NC(=O)c2ccc(N3CCC([C@@H](O)c4ccccc4-c4ccc(Cl)cc4)CC3)cc2)cc1S(=O)(=O)C(F)(F)F [AZD4320] + Cc1cc2ncnn2cc1Nc1ncc2c(n1)n(C1CCOCC1)c(=O)n2C [AZD7648] (first compound max 1 µM, 7x7, partner max 10 µM)	0.203	0.379	0.391	0.287	0.393	0.798	0.226	0.462	1	0.57	0.991	0.17	0.181	0.204	0.105	0.355	0.371	0.118	1	0.522
CN(CCO)CC[C@H](CSc1ccccc1)Nc1ccc(S(=O)(=O)NC(=O)c2ccc(N3CCC([C@@H](O)c4ccccc4-c4ccc(Cl)cc4)CC3)cc2)cc1S(=O)(=O)C(F)(F)F [AZD4320] + Cn1cnc2c(F)c(Nc3ccc(Br)cc3Cl)c(C(=O)NOCCO)cc21 [Selumetinib] (first compound max 1 µM, 7x7, partner max 3 µM)	0.801	0.925	0.528	0.369	0.731	0.935	0.579	0.557	1	0.99	0.996	0.516	0.432	0.329	0.604	0.786	0.494	0.651	1	0.771
Cc1c2c(nn1C)CSCc1cc(n(C)n1)CSc1cc(c3ccccc3c1)OCCCc1c(C(=O)O)n(C)c3c-2c(Cl)ccc13 [AZD5991] + CC1(C)CCC(CN2CCN(c3ccc(C(=O)NS(=O)(=O)c4ccc(NCC5CCOCC5)c([N+](=O)[O-])c4)c(Oc4cnc5[nH]ccc5c4)c3)CC2)=C(c2ccc(Cl)cc2)C1 [Venetoclax] (first compound max 1 µM, 7x7, partner max 1 µM)	1	0.835	0.116	0.379	0.964	0.191	0.173	0.928	0.98	0.864	1	0.226	0.339	0.374	0.0393	0.93	0.124	0.239	1	0.216
Cc1c2c(nn1C)CSCc1cc(n(C)n1)CSc1cc(c3ccccc3c1)OCCCc1c(C(=O)O)n(C)c3c-2c(Cl)ccc13 [AZD5991] + CCN(CCO)CCCOc1ccc2c(Nc3cc(CC(=O)Nc4cccc(F)c4)[nH]n3)ncnc2c1 [AZD2811] (first compound max 1 µM, 7x7, partner max 1 µM)	1	0.86	0.281	0.314	0.988	0.23	0.249	0.921	0.973	1	1	0.43	0.592	0.701	0.227	0.983	0.336	0.423	1	0.159
